Reference: ChEMBL document CHEMBL2028040, “Malaria Box”

Columns and labels:
Plasmodium falciparum [1] = assay: MMV: Inhibition of Plasmodium falciparum 3D7 (EC50).; assay type: functional, organism-based
[2] = tested on: Trypanosoma brucei rhodesiense; assay: MMV: Inhibition of Trypanosoma brucei rhodesiense (STIB 900) (HAT in vitro).; assay type: functional, organism-based
Trypanosoma cruzi = assay: MMV: Inhibition of Trypanosoma cruzi (Tulahuen C4 LacZ) (Chagas in vitro).; assay type: functional, organism-based
Leishmania infantum = assay: MMV: Inhibition of Leishmania infantum (MHOM/MA/BE/67) in vitro.; assay type: functional, organism-based
[3] = MMV: Cytotoxicity against human fibroblasts (MRC-5) cells.; conditions: MRC-5 cells (human fibroblasts)
[4] = tested on: Trypanosoma brucei brucei; assay: MMV: Inhibition of Trypanosoma brucei brucei (Squib 427) (HAT in vitro).; assay type: functional, organism-based
Plasmodium falciparum [5] = assay: MMV: Inhibition of Plasmodium falciparum 3D7 at 5uM compound concentration.; assay type: functional

Structure (SMILES) | EC50 (Plasmodium falciparum [1]) | IC50 [2] | IC50 (Trypanosoma cruzi) | IC50 (Leishmania infantum) | IC50 [3] | IC50 [4] | inhibition at 5 µM (Plasmodium falciparum [5])
COc1ccc(/C=C2/SC(=Nc3ccccc3)NC2=O)cc1 | 0.551 µM | 16.3 µM | > 32 µM | > 32 µM | 11.5 µM | > 32 µM | 71%
CCN1CCN(Cc2ccc(NC(=O)c3cc4ccc5cccnc5c4[nH]3)cc2)CC1 | 0.361 µM | 0.928 µM | 8 µM | 6.35 µM | 8.47 µM | 3.78 µM | 70%
O=C(NC1CCN(Cc2ccccc2)CC1)c1cc(-c2ccncc2)nc2ccc(Cl)cc12 | 1.02 µM | 3.51 µM | 4.59 µM | 16.2 µM | > 32 µM | 4.03 µM | 92%
COc1ccc2nc(C)cc(Nc3cccc(O)c3)c2c1 | 0.969 µM | 5.08 µM | 15 µM | 16 µM | > 32 µM | 4.41 µM | 98%
Cc1[nH]c(-c2ccc(F)cc2)cc1C(=O)NC1CCN(Cc2ccccc2)CC1 | 0.771 µM | 4.03 µM | > 32 µM | > 32 µM | > 32 µM | 6.26 µM | 99%
CCOc1ccc(CN2CCN(CC(O)COc3ccc(OCC(O)CN4CCN(Cc5ccc(OCC)cc5)CC4)cc3)CC2)cc1 (stereo not given) | 1.2 µM | 0.964 µM | 2.54 µM | 2.52 µM | 10.7 µM | 3.52 µM | 97%
CCOc1cc(Br)c(C(C)NC(=O)c2cccc(OC)c2)cc1OCC (stereo not given) | 1.43 µM | > 32 µM | > 32 µM | > 32 µM | > 32 µM | > 32 µM | 96%
O=C(NCCCN1CCC(N2CCCCC2)CC1)C1=Cc2cc(Br)ccc2OC1 | 0.563 µM | 0.859 µM | 4.22 µM | 4.03 µM | 12 µM | 0.805 µM | 99%
Fc1ccc2[nH]c3c(NCCCN4CCOCC4)ncnc3c2c1 | 0.345 µM | 18.3 µM | > 32 µM | > 32 µM | > 32 µM | > 32 µM | 98%
Cc1ccc(Cl)cc1N1CCN(CCCNC(=O)C2CCN(c3nc4ccccc4[nH]3)CC2)CC1 | 1.33 µM | 1.01 µM | 3.74 µM | 4 µM | 14.5 µM | 1.31 µM | 97%
COc1ccc(C(=O)Nc2nonc2-c2ccc(OC)c(OC)c2)cc1Cl | 0.516 µM | > 32 µM | > 32 µM | > 32 µM | > 32 µM | > 32 µM | 92%
O=C(Nc1ccc(CN2CCOCC2)cc1)c1ccc(-c2cc(Cl)ccc2Cl)o1 | 1.95 µM | 4.44 µM | 12.1 µM | 25.4 µM | 17.4 µM | 14.9 µM | 97%
CCOc1ccc(C2N(C)c3ccccc3N2C)cc1 | 0.941 µM | > 32 µM | 3.1 µM | 25.4 µM | 15.5 µM | > 32 µM | 72%
O=C(Nc1ccc(-c2nc3ccccc3[nH]2)cc1)c1ccc(Cl)c(Cl)c1 | 0.838 µM | > 32 µM | > 32 µM | > 32 µM | > 32 µM | > 32 µM | 97%
CCOc1cc(Cl)c(C(C)NC(=O)c2ccccc2)cc1OCC (stereo not given) | 1.37 µM | > 32 µM | > 32 µM | > 32 µM | > 32 µM | > 32 µM | 96%
COc1ccc(C2NCCc3c2[nH]c2ccccc32)cc1CN1CCN(c2ccc(F)cc2)CC1 (stereo not given) | 0.934 µM | 0.246 µM | 2.75 µM | 1.19 µM | 3.94 µM | 2.78 µM | 97%
O=C(NC1CCN(Cc2ccccc2)CC1)c1cc(-c2cccnc2)nc2ccc(Cl)cc12 | 1.01 µM | 3.83 µM | > 32 µM | > 32 µM | > 32 µM | 14 µM | 91%
CC(=O)NCCc1nc2ccccc2n1Cc1ccc(C(C)C)cc1 | 1.79 µM | > 32 µM | > 32 µM | > 32 µM | > 32 µM | > 32 µM | 97%
COc1nc(Nc2ccc(C(C)C)cc2)nc(OC)n1 | 1.14 µM | 10.7 µM | 24.5 µM | > 32 µM | > 32 µM | 10.9 µM | 88%
Nc1ccc(-c2nc3cc(Oc4ccc(Oc5ccc6[nH]c(-c7ccc(N)cc7)nc6c5)cc4)ccc3[nH]2)cc1 | 0.842 µM | 2.74 µM | 3.91 µM | 4.06 µM | 8 µM | 1.94 µM | 97%

Structure (SMILES) | EC50 (Plasmodium falciparum [1]) | IC50 [2] | IC50 (Trypanosoma cruzi) | IC50 (Leishmania infantum) | IC50 [3] | IC50 [4] | inhibition at 5 µM (Plasmodium falciparum [5])
CCOc1ccc(-n2cc(-c3ccccc3)c3c(SCc4cc(C)ccc4C)ncnc32)cc1 | 1.71 µM | 25 µM | > 32 µM | > 32 µM | > 32 µM | > 32 µM | 97%
Cc1ccccc1OCCSc1nc2ccc(NC(=O)c3ccccc3)cc2s1 | 1.12 µM | > 32 µM | > 32 µM | > 32 µM | > 32 µM | > 32 µM | 93%
Cc1cc(NC(=O)c2ccc(-c3ccccc3)cc2)no1 | 0.693 µM | > 32 µM | > 32 µM | > 32 µM | > 32 µM | > 32 µM | 95%
COc1cccc(-c2nn(C)c3sc(C(=O)NCCN4CCN(c5ccccc5F)CC4)cc23)c1 | 1.3 µM | 5.31 µM | > 32 µM | > 32 µM | > 32 µM | 16 µM | 91%
COc1cc(-c2nc(-c3ccccc3)c(-c3ccccc3)[nH]2)cc(OC)c1O | 1.18 µM | 9.75 µM | 28.3 µM | 25.4 µM | > 32 µM | 11.9 µM | 97%
O=C(Nc1ccc(N2CCN(Cc3ccccc3)CC2)cc1)c1cccs1 | 1.07 µM | 9.69 µM | > 32 µM | > 32 µM | > 32 µM | 14.6 µM | 59%
O=C(Nc1ccc(-c2nc3cc4ccccc4cc3[nH]2)cc1)c1cccc(Br)c1 | 0.45 µM | > 32 µM | > 32 µM | > 32 µM | > 32 µM | > 32 µM | 93%
Cc1cc(C)c2nc(N3CCC(C(=O)NCCCN4CCC(N5CCCCC5)CC4)CC3)sc2c1 | 0.697 µM | < 0.125 µM | 0.85 µM | 4.06 µM | 4.25 µM | 0.22 µM | 98%
Cc1ccc(Cn2c(N3CCC(C(=O)NCc4cccs4)CC3)nc3ccccc32)cc1 | 0.947 µM | > 32 µM | > 32 µM | 25.4 µM | > 32 µM | > 32 µM | 73%
COc1cc(CNCCc2ccc(Cl)cc2)cc(OC)c1O | 1.79 µM | 12.1 µM | > 32 µM | > 32 µM | > 32 µM | 15 µM | 97%
O=c1nc(C=Cc2ccc(Cl)cc2)oc2ccccc12 | 0.995 µM | 27.4 µM | > 32 µM | > 32 µM | > 32 µM | > 32 µM | 76%
O=C(NCc1ccco1)C1CCN(S(=O)(=O)c2ccc(Br)cc2)CC1 | 0.939 µM | > 32 µM | > 32 µM | > 32 µM | > 32 µM | > 32 µM | 93%
COc1ccc(-c2nc3cc(Cc4ccc5[nH]c(-c6ccc(OC)cc6)nc5c4)ccc3[nH]2)cc1 | 0.176 µM | < 0.125 µM | < 0.125 µM | 4.06 µM | 4.76 µM | 0.179 µM | 98%
COc1ccc(CCNC(=O)c2cc(S(=O)(=O)N3CC(C)CC(C)C3)ccc2Sc2ccc(F)cc2)cc1OC (stereo not given) | 0.632 µM | > 32 µM | > 32 µM | > 32 µM | > 32 µM | > 32 µM | 97%
CCCCCCOC(=O)C1=C(C)NC(=O)NC1c1ccccc1F (stereo not given) | 0.106 µM | > 32 µM | > 32 µM | 18.4 µM | > 32 µM | > 32 µM | 95%
COc1cc(OC)cc(N2C(=O)N(Cc3ccc(C(C)(C)C)cc3)c3ccccc3S2(=O)=O)c1 | 1.43 µM | 4.06 µM | 8.64 µM | 16.2 µM | > 32 µM | 18.4 µM | 97%
CCCc1c(CC)c(=N)c2ccccc2n1C | 0.242 µM | 16.2 µM | 0.415 µM | > 32 µM | 30.6 µM | 21 µM | 69%
CCOC(=O)c1cnc2c(C)cc(C)cc2c1Nc1ccc(OC)c(OC)c1 | 0.232 µM | > 32 µM | > 32 µM | > 32 µM | > 32 µM | > 32 µM | 96%
CCCn1c(=N)c(C(=O)NC2CCCCC2)cc2c(=O)n3cccc(C)c3nc21 | 1.11 µM | 8.44 µM | > 32 µM | > 32 µM | > 32 µM | 16.1 µM | 96%
C=CCc1c(C)nc2ccccc2c1O | 1.29 µM | > 32 µM | > 32 µM | > 32 µM | > 32 µM | > 32 µM | 85%
